How the values were obtained:
TAS2R31-H1 = assay: Calcium imaging in HEK 293T Gα16gust44 cells transfected with TAS2R31-H1; assay type: cell-based, human
Text: (§1) Allelic responses to agonists were quantified using in vitro heterologous expression assays designed in previous studies of TAS2R receptor function, which successfully mimic responses in vivo with respect to both magnitude and concentration range [17, 23, 25, 26, 46]. DNA fragments containing TAS2R coding sequences were first amplified from genomic DNA by PCR using a proofreading polymerase (PfuUltra II Fusion HotStart DNA Polymerase; Agilent Technologies, Santa Clara, CA, USA) and cloned into a plasmid vector according to the manufacturer’s protocol (Zero Blunt TOPO PCR Cloning Kit; Life Technologies). […]
(§2) Functional assays were carried out in HEK 293T cells stably expressing the G protein chimera Gα16gust44 and transiently transfected with TAS2R alleles subcloned into the expression vector [78]. Calcium imaging was performed using an automated fluorometric imaging plate reader by exposing transfected cells to test compounds dissolved in assay buffer or to assay buffer alone (FLIPR Tetra; Molecular Devices, LLC, Sunnyvale, CA, USA). Changes in cytosolic calcium levels were monitored by measuring fluorescence intensity of a calcium-sensitive dye previously added (Fluo-4 AM; Life Technologies). […]
(§3) Prior to final analysis, fluorescence data from functional assays, expressed in relative fluorescence units (RFU), underwent three corrections. […]

TAS2R31-H2 = assay: Calcium imaging in HEK 293T Gα16gust44 cells transfected with TAS2R31-H2; assay type: cell-based, human
Text: as §1, §2, §3

TAS2R31-H3 = assay: Calcium imaging in HEK 293T Gα16gust44 cells transfected with TAS2R31-H3; assay type: cell-based, human
Text: as §1, §2, §3

TAS2R31-H4 = assay: Calcium imaging in HEK 293T Gα16gust44 cells transfected with TAS2R31-H4; assay type: cell-based, human
Text: as §1, §2, §3

[1] = tested on: bitter taste perception of 48 Caucasian subjects; assay: Human psychophysical bitter taste tests (4-AFC recognition thresholds, gLMS intensity ratings); assay type: in vivo; conditions: for concentration perceived as weakly bitter, fold range across subjects / concentration perceived as weakly bitter, mode: gLMS weak intensity
Description: All were pre-screened to avoid inclusion of individuals with health problems and overt taste pathologies; pregnant and breast-feeding women were also excluded. Each subject participated in the entire course of the study, which included one training session and nine experimental sessions. Visits consisted of DNA collection and psychophysical tests for genotyping and phenotypic analyses, respectively. General taste abilities were also assessed for the bitter, salty, sour, and sweet taste during the first session.
Experiments were conducted at the sensory analysis laboratory of the German Institute of Human Nutrition Potsdam-Rehbruecke, according to good practice guidelines. […] Perceived bitter taste intensities were rated on the general Labelled Magnitude Scale (gLMS; [72–74]). […] For each 4-AFC test, four coded samples containing 10 ml solution were presented simultaneously; one containing the bitter tastant diluted in mineral water (Evian; Danone, Paris, France) and three containing mineral water only. At each concentration, subjects were challenged to identify the different sample, specify whether the quoted sample tasted bitter, and rate the perceived bitter intensity. Tests were performed with nose clips and oral rinsing, with a 45 s pause between concentrations. Training sessions were first used to familiarize subjects with the experimental procedures, and secondly, to assess general taste abilities. Concentration series consisted of geometric sequences of […], with a 1.5 common ratio and the following concentration ranges: 3.5x10^-5–2.0x10^-3M, 6.9x10^-4–4.0x10^-2 M, 2.6x10^-4–1.5x10^-2 M, 6.9x10^-4–4.0x10^-2 M, for salicin, sodium chloride, citric acid, and sucrose used as reference tastants for bitter, salty, sour, and sweet taste, respectively. Following training, subjects tested each tastant in triplicate over nine sessions. Latin square designs extended for first-order carry-over effects were used to counterbalance presentation order of the test compounds over the test sessions, across subjects and for each test compound, as well as presentation order of the samples at each concentration across both repetitions and subjects. Sensory sessions were monitored and data automatically collected (Fizz; Biosystèmes, Couternon, France).
Detection and recognition probabilities of the bitter samples were analysed per repetition and subject. Relationships between probabilities (detection or recognition probabilities) and concentrations were fitted by a logistic regression model using the maximum-likelihood method. Threshold value and slope of the logistic curves were then obtained per repetition and subject, using a self-implemented toolbox (Matlab; The MathWorks Inc.). […] Where required, outliers were discarded according to the Peirce’s criterion. Perceived intensities, expressed in percentage of the scale length, were analysed similarly.

TAS2R30-H1 = assay: Calcium imaging in HEK 293T Gα16gust44 cells transfected with TAS2R30-H1; assay type: cell-based, human; conditions: for threshold: first concentration eliciting significant receptor activation
Text: (§4) Allelic responses to agonists were quantified using in vitro heterologous expression assays designed in previous studies of TAS2R receptor function, which successfully mimic responses in vivo with respect to both magnitude and concentration range [17, 23, 25, 26, 46]. DNA fragments containing TAS2R coding sequences were first amplified from genomic DNA by PCR using a proofreading polymerase (PfuUltra II Fusion HotStart DNA Polymerase; Agilent Technologies, Santa Clara, CA, USA) and cloned into a plasmid vector according to the manufacturer’s protocol (Zero Blunt TOPO PCR Cloning Kit; Life Technologies). A second PCR was performed using specific cloning primers to facilitate subcloning into the expression vector, which was then modified to add an N-terminal signal for cell surface localisation and a C-terminal epitope for immunocytochemical detection to the receptor sequence (Fast Link DNA Ligation Kit; Epicentre, Illumina Inc., Madison, WI, USA) (pcDNA5/FRT Mammalian Expression Vector; Life Technologies). Empty vector was used as a negative control.
(§5) Functional assays were carried out in HEK 293T cells stably expressing the G protein chimera Gα16gust44 and transiently transfected with TAS2R alleles subcloned into the expression vector [78]. Calcium imaging was performed using an automated fluorometric imaging plate reader by exposing transfected cells to test compounds dissolved in assay buffer or to assay buffer alone (FLIPR Tetra; Molecular Devices, LLC, Sunnyvale, CA, USA). Changes in cytosolic calcium levels were monitored by measuring fluorescence intensity of a calcium-sensitive dye previously added (Fluo-4 AM; Life Technologies). Six replicates were carried out for each bitter stimulus, on separate experimental days, with each replicate consisting of concentration series of each bitter tastant.
(§6) Prior to final analysis, fluorescence data from functional assays, expressed in relative fluorescence units (RFU), underwent three corrections. First, a correction calculated from baseline values was applied to compensate for well-to-well fluctuations. A second correction calculated from negative control values was applied to correct for receptor independent artefacts and signal drift. A third correction calculated from positive control values was applied to facilitate comparison of data obtained from different experimental days. Fluorescence ratios ((F-F0)/F0), obtained by subtracting the background fluorescence from fluorescence peak height and then dividing the difference by the background fluorescence, were then used for data analysis. Variance analyses were performed, followed by Bonferroni multiple comparisons tests (SPSS 20; IBM Corporation, Armonk, NY, USA). Threshold response values were then defined as the first concentration eliciting a significant activation of the receptor, with empty vector acting as a negative control. Finally, dose-response curves were fitted to the Hill equation by nonlinear regression in order to determine half maximal effective concentrations (EC50) and maximal amplitude (SigmaPlot; Systat Software Inc., Chicago, IL, USA).

TAS2R30-H2 = assay: Calcium imaging in HEK 293T Gα16gust44 cells transfected with TAS2R30-H2; assay type: cell-based, human; conditions: for threshold: first concentration eliciting significant receptor activation
Text: as §4, §5, §6

TAS2R43-H1 = assay: Calcium imaging in HEK 293T Gα16gust44 cells transfected with TAS2R43-H1; assay type: cell-based, human; conditions: first concentration eliciting significant receptor activation
Text: as §4, §5
as §6, with “Threshold response values were then defined as the first concentration eliciting a significant activation of the receptor, with empty vector acting as a negative control. Finally, dose-response curves were fitted to the Hill equation by nonlinear regression in order to determine half maximal effective concentrations (EC50) and maximal amplitude (SigmaPlot; Systat Software Inc., Chicago, IL, USA).” left out

TAS2R43-H2 = assay: Calcium imaging in HEK 293T Gα16gust44 cells transfected with TAS2R43-H2; assay type: cell-based, human; conditions: first concentration eliciting significant receptor activation
Text: as §4, §5
as §6, with “Threshold response values were then defined as the first concentration eliciting a significant activation of the receptor, with empty vector acting as a negative control. Finally, dose-response curves were fitted to the Hill equation by nonlinear regression in order to determine half maximal effective concentrations (EC50) and maximal amplitude (SigmaPlot; Systat Software Inc., Chicago, IL, USA).” left out

TAS2R46-H1 = target: T1, TAS2R46-H1 (Homo sapiens, UniProt P59540); assay: Calcium imaging in HEK 293T Gα16gust44 cells transfected with TAS2R46-H1; assay type: cell-based; conditions: for threshold: first concentration eliciting significant receptor activation
T1 construct: N-terminal signal for cell surface localisation (N); expressed in transfected cells; host or cells: HEK 293T cells stably expressing the G protein chimera Gα16gust44
T1 sequence (P59540 1-309): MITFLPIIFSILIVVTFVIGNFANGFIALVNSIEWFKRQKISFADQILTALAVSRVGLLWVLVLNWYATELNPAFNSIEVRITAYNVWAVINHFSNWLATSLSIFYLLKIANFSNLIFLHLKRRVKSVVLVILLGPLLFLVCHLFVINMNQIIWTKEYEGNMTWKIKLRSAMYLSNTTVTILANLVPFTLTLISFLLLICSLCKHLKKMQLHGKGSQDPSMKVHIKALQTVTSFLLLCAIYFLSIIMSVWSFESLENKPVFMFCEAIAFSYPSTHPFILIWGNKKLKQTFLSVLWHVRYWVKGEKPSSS
Text: as §4, §5, §6

TAS2R46-H2 = target: T2, TAS2R46-H2 (Homo sapiens, UniProt P59540); assay: Calcium imaging in HEK 293T Gα16gust44 cells transfected with TAS2R46-H2; assay type: cell-based; conditions: TAS2R46-H2, truncated variant (premature stop codon)
T2 construct: TAS2R46-H2, a truncated, six-transmembrane variant of the receptor; N-terminal signal for cell surface localisation (N); expressed in transfected cells; host or cells: HEK 293T cells stably expressing the G protein chimera Gα16gust44
T2 sequence (P59540 1-249 limits assumed): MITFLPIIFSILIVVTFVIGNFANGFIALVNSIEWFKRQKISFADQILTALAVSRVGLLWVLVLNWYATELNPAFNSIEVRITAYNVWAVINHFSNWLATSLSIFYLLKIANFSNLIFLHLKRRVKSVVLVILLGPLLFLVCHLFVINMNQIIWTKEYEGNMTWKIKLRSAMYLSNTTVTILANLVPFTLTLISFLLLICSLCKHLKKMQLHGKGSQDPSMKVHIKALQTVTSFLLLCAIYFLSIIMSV
Text: as §4, §5, §6

TAS2R46-H3 = assay: Calcium imaging in HEK 293T Gα16gust44 cells transfected with TAS2R46-H3; assay type: cell-based, human; conditions: for threshold: first concentration eliciting significant receptor activation
Text: as §4, §5, §6

[2] = tested on: TAS2R30, -31, -43, and -46; assay: Calcium imaging functional assays, statements across TAS2R loci (variants not resolved); assay type: cell-based, human; conditions: fold higher than TAS2R30
Text: as §4, §2
Prior to final analysis, fluorescence data from functional assays, expressed in relative fluorescence units (RFU), underwent three corrections. First, a correction calculated from baseline values was applied to compensate for well-to-well fluctuations. A second correction calculated from negative control values was applied to correct for receptor independent artefacts and signal drift. […]

[3] = tested on: every known TAS2R in humans; parameters: method as in PMID 20022913; conditions: complete TAS2R family; cited from earlier work

| Molecule | concentration perceived as strongly bitter, fold range across subjects ([1]; gLMS strong intensity) | concentration perceived as weakly bitter, fold range across subjects [1] | concentration perceived as weakly bitter, mode [1] | EC50 (TAS2R30-H1) | maximum amplitude (TAS2R30-H1) | threshold (TAS2R30-H1) | EC50 (TAS2R30-H2) | maximum amplitude (TAS2R30-H2) | threshold (TAS2R30-H2) | EC50 (TAS2R46-H1) | maximum amplitude (TAS2R46-H1) | threshold (TAS2R46-H1) | receptor variant response (TAS2R46-H2) | threshold (TAS2R46-H3) | TAS2Rs responsive in published receptor-agonist inventory [3] | also measured |
| --- | --- | --- | --- | --- | --- | --- | --- | --- | --- | --- | --- | --- | --- | --- | --- | --- |
| C=C[C@H]1C[N@@]2CC[C@H]1C[C@H]2[C@H](O)c1ccnc2ccc(OC)cc12 [quinine] | – | – | – | – | – | – | – | – | – | – | – | – | – | – | – | receptor variant response (TAS2R31-H1): intermediates; receptor variant response (TAS2R31-H2): sensitive; receptor variant response (TAS2R31-H3): insensitive; receptor variant response (TAS2R31-H4): intermediates |
| amarogentin | less than 4 fold | 17 fold | 50 nM | 0.41 µM | 0.50 ΔF/F | 10 nM | 0.39 µM | 0.12 ΔF/F | 300 nM | 67 µM | 0.57 ΔF/F | 30 µM | not activated at any concentration | 100 µM | TAS2R1, -4, -39, -43, -46, -30, and -50 | bitter taste recognition threshold, mode of distribution ([1]; 48 human subjects): 40 nM; threshold (TAS2R43-H1): 300 µM; threshold (TAS2R43-H2): 300 µM; activation concentration of TAS2R43 relative to TAS2R30 [2]: 3000 fold |
| CC1=C[C@H]2[C@H]3[C@H](C(C)=C4[C@H]5OC(=O)[C@@H](C)[C@@H]5CC[C@](C)(O)[C@@H]43)[C@@]13[C@@H]2[C@@](C)(O)CC[C@H]1[C@H](C)C(=O)O[C@@H]13 [absinthin] | 5 fold | 15 fold | 390 nM | 3.1 µM | 0.41 ΔF/F | 300 nM | 1.3 µM | 0.15 ΔF/F | 1000 nM | 11 µM | 0.63 ΔF/F | 3 µM | no response at any concentration | 10 µM | TAS2R30 and -46 | recognition threshold, fold range across subjects ([1]; 48 human subjects): 40 fold; concentration perceived as strongly bitter, mode ([1]; gLMS strong intensity): 1.3 µM; EC50 (TAS2R46-H3): 14 µM; maximum amplitude (TAS2R46-H3): 0.48 ΔF/F |

Source: article PMC4583475, “Receptor Polymorphism and Genomic Structure Interact to Shape Bitter Taste Perception” (PLoS Genetics, 2015)
